A short description of data set [1]: Intrinsic clearance in human liver microsomes. On the technique in general: Liver microsomes are vesicles of endoplasmic reticulum, rich in cytochrome P450 enzymes.
A short description of data set [2]: in vivo. The settings on record: mouse, po, 2 umol/kg.
The nature of data set [3]: Half life in mouse at 1 umol/kg, iv. Conditions: in vivo.
Data set [4] in a line: Clearance in mouse at 2 umol/kg, po or 1 umol/kg, iv. The settings on record: in vivo.
The nature of data set [5]: Half life in mouse at 2 umol/kg, po. Conditions: in vivo.
Data set [6] in a line: in vivo. The settings on record: mouse, po, 2 umol/kg. The source holds these as a separate data set.
Data set [7] is described as follows: Protein binding in mouse plasma.
Data set [8] in a line: Apparent permeability across apical to basal membrane in human Caco-2 cells. A general note: Caco-2 cells form a polarised layer with tight junctions and transporters.
Data set [9] is described as follows: Apparent permeability across basal to apical membrane in human Caco-2 cells.
Data set [10] can be described thus: Protein binding in human plasma.
The nature of data set [11]: Intrinsic clearance in mouse liver microsome. The settings on record: microsomes.

In turn, `Cc1c(CN2CCN(C(=O)C3CCCC3)[C@@H](C)C2)cc(F)cc1NC(=O)CCc1ccccc1` had a CLH in data set [1] of 1900 µL/min/mg.

As a reminder, the AUC is concentration integrated over time. Read a low AUC as less exposure. Usually half-life stands for how long it takes for the measured level to halve. High values mean slow loss, low ones fast loss. As a reminder, the bioavailability is dose-corrected exposure relative to a reference, in per cent. Higher therefore signals much systemic uptake. As a reminder, the fraction unbound is the share of the substance not bound to proteins or other matrix. Low values mean little free substance, high ones much free substance. As usually defined, the Papp A→B is the apparent permeability from the apical to the basolateral side of a cell layer. Broadly, the Papp B→A is how fast a substance crosses the layer from the basolateral side. Turning to `Cc1c(CN2CCN(C(=O)C3CCCC3)[C@@H](C)C2)cc(F)cc1NC(=O)CC(CCC(=O)O)c1ccccc1` (stereo in doubt; 6a), the CLH is below 10 µL/min/mg in [1] and 17 µL/min/mg in [11]. Moreover, the AUC in “in vivo [2]” was found to be 0.2 µM·h. Moreover, the half-life was 1.2 h in data set [3] and 1.5 h in [5]. This compound showed a clearance in data set [4] of 76.7 mL/min/kg. In “in vivo [6]”, this compound had a bioavailability of 46%. For the same compound, the fraction unbound in data set [7] is 0.028; in data set [10], 0.006. In addition, the Papp A→B in data set [8] was found to be 1.3 ×10⁻⁶ cm/s. For the same compound, the Papp B→A in [9] worked out at 39 ×10⁻⁶ cm/s.

In data set [1], `Cc1c(CN2CCN(C(=O)C3CCCC3)[C@@H](C)C2)cc(F)cc1NC(=O)CC(CCC(=O)O)c1ccccc1` (stereo in doubt; 6b) yielded a CLH of 21 µL/min/mg.

For the compound `C[C@H]1CN(Cc2cc(Cl)cc(NC(=O)CC(CCC(=O)O)c3ccccc3)c2Cl)CCN1C(=O)C1CCCC1` (stereo in doubt; 12a), the CLH in [1] is 31 µL/min/mg; in data set [11], below 10 µL/min/mg. Also, the AUC in “in vivo [2]” turned out to be 4 µM·h. Moreover, the half-life in data set [3] and in data set [5] was 1.5 h each time. Further, the clearance in data set [4] is 8.67 mL/min/kg. In addition, in “in vivo [6]”, the bioavailability is 100%. The fraction unbound in data set [7] was 0.006; in data set [10] it was 0.003. The apparent permeability from apical to basolateral (Papp A→B) in data set [8] came to 13 ×10⁻⁶ cm/s. The Papp B→A in data set [9] turned out to be 45 ×10⁻⁶ cm/s.

The compound `C[C@H]1CN(Cc2cc(Cl)cc(NC(=O)CC(CCC(=O)O)c3ccccc3)c2Cl)CCN1C(=O)C1CCCC1` (stereo in doubt; 12b) registered a CLH in data set [1] below 10 µL/min/mg.

(Values after ChEMBL document CHEMBL4732159, “Discovery of 6-Oxo-4-phenyl-hexanoic acid derivatives as RORγt inverse agonists showing favorable ADME profile” (Bioorg Med Chem Lett, 2021).)
